Measurements taken from PubChem BioAssay (NCI).
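Five compound concentrations were applied to cells in 96-well plates for 48 hours; endpoints were derived by simple linear interpolation of the resulting dose-response curve. Definition used: TGI = concentration required for complete inhibition of growth.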

Columns and labels:
Assay in all cases: NCI tumour cell line growth inhibition, 48 h
SF-539 CNS = tested on: SF-539 CNS
OVCAR-8 ovarian = tested on: OVCAR-8 ovarian
SNB-75 CNS = tested on: SNB-75 CNS
IGROV1 ovarian = tested on: IGROV1 ovarian
MDA-N = tested on: MDA-N
SW-620 colon = tested on: SW-620 colon
HT29 colon = tested on: HT29 colon
OVCAR-4 ovarian = tested on: OVCAR-4 ovarian
A549 NSCLC = tested on: A549 NSCLC
SR leukemia = tested on: SR leukemia
MALME-3M melanoma = tested on: MALME-3M melanoma
MOLT-4 leukemia = tested on: MOLT-4 leukemia
SK-MEL-28 melanoma = tested on: SK-MEL-28 melanoma
HOP-62 NSCLC = tested on: HOP-62 NSCLC
OVCAR-3 ovarian = tested on: OVCAR-3 ovarian
HL-60(TB) leukemia = tested on: HL-60(TB) leukemia
LOX IMVI melanoma = tested on: LOX IMVI melanoma
HCC-2998 colon = tested on: HCC-2998 colon
UACC-257 melanoma = tested on: UACC-257 melanoma
BT-549 breast = tested on: BT-549 breast
ACHN renal = tested on: ACHN renal
NCI-H23 lung = tested on: NCI-H23 lung
T-47D breast = tested on: T-47D breast
MCF7 breast = tested on: MCF7 breast
HOP-92 NSCLC = tested on: HOP-92 NSCLC
CAKI-1 renal = tested on: CAKI-1 renal
HCT-15 colon = tested on: HCT-15 colon
K-562 leukemia = tested on: K-562 leukemia
COLO 205 colon = tested on: COLO 205 colon
SF-268 CNS = tested on: SF-268 CNS
SK-MEL-2 melanoma = tested on: SK-MEL-2 melanoma
DU-145 prostate = tested on: DU-145 prostate
UACC-62 melanoma = tested on: UACC-62 melanoma
786-0 renal = tested on: 786-0 renal
M14 melanoma = tested on: M14 melanoma
RXF 393 renal = tested on: RXF 393 renal
PC-3 prostate = tested on: PC-3 prostate
SK-OV-3 ovarian = tested on: SK-OV-3 ovarian
HCT-116 colon = tested on: HCT-116 colon
EKVX NSCLC = tested on: EKVX NSCLC
UO-31 renal = tested on: UO-31 renal
MDA-MB-231 breast = tested on: MDA-MB-231 breast
U251 CNS = tested on: U251 CNS
HS 578T breast = tested on: HS 578T breast
NCI-H522 lung = tested on: NCI-H522 lung
CCRF-CEM leukemia = tested on: CCRF-CEM leukemia
NCI/ADR-RES ovarian = tested on: NCI/ADR-RES ovarian
OVCAR-5 ovarian = tested on: OVCAR-5 ovarian
SNB-19 CNS = tested on: SNB-19 CNS
NCI-H460 lung = tested on: NCI-H460 lung
SN12C renal = tested on: SN12C renal
NCI-H226 lung = tested on: NCI-H226 lung
SK-MEL-5 melanoma = tested on: SK-MEL-5 melanoma
TK-10 renal = tested on: TK-10 renal
RPMI-8226 leukemia = tested on: RPMI-8226 leukemia
MDA-MB-435 = tested on: MDA-MB-435
KM12 colon = tested on: KM12 colon

Measured: TGI

O=c1cnn(C2OC(C(O)CO)C(O)C2O)c(=O)[nH]1 (configuration not stated)
> 100 µM: all assays above
